# Assay results: publication PMC7053292 (Research in Pharmaceutical Sciences, 2020)
# Like-named read-outs stand apart in the source and are kept apart here. Marks after values point to notes of the source that are not given here.
# How the values were obtained:
# [1] = molecular target: T1, α-glucosidase from Saccharomyces cerevisiae (Saccharomyces cerevisiae, UniProt P53341); assay: α-Glucosidase assay; format: biochemical; conditions: for inhibition percentage lower than standard inhibitor acarbose on α-glucosidase: ratio of inhibition percentages, acarbose vs sample; for inhibition at 20 µM: read-out: Inhibition at 0.02 mM (%) α-Glucosidase
# T1 sequence (P53341 whole entry): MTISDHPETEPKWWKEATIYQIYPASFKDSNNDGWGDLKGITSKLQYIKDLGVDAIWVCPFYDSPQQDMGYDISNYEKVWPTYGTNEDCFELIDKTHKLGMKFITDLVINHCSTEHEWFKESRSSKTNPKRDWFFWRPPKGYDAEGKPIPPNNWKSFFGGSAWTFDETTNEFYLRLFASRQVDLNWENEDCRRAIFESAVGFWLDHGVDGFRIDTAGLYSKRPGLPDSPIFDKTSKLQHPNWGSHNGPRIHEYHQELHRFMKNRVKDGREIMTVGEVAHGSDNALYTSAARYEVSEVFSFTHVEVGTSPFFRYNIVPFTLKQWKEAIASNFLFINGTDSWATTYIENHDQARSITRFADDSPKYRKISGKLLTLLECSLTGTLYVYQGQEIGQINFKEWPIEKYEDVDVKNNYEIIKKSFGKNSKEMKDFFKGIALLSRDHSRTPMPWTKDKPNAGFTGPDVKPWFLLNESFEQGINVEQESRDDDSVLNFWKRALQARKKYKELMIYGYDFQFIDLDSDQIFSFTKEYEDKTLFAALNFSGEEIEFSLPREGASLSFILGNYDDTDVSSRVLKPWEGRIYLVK
# [2] = molecular target: T2, α-amylase from Aspergillus oryzae (Aspergillus oryzae, UniProt P0C1B3); assay: biochemical; conditions: for inhibition percentage lower than standard inhibitor acarbose on α-amylase: ratio of inhibition percentages, acarbose vs sample; for inhibition at 20 µM: read-out: Inhibition at 0.02 mM (%) α-Amylase
# [3] = molecular target: T1, α-glucosidase from Saccharomyces cerevisiae; assay: Kinetic study on α-glucosidase; format: biochemical; conditions: for α-Glucosidase inhibition type: Lineweaver-Burk and Dixon plots; for Ki: α-Glucosidase Ki, from slope (Km/Vmax) vs [I], substrate 4-pNPG, free enzyme
# [4] = molecular target: T2, α-amylase from Aspergillus oryzae; assay: Kinetic study on α-amylase; format: biochemical; conditions: for α-Amylase inhibition type: Lineweaver-Burk and Dixon plots; for Ki: substrate amylose
# DPPH assay = conditions: mean ± SD, n = 3; for Inhibitory activity at 0.5 mM (%): DPPH; for IC50: read-out: IC50 (DPPH free radical scavenging)
# [5] = IC50 values (mM) α-Amylase, mean ± SD, n = 3
# [6] = α-Amylase Ki, from slope (Km/Vmax) vs [I], free enzyme
# [7] = α-Amylase Ki´, from 1/Vmax vs [I], enzyme-substrate complex
SMILES,IC50 [1] [µM],inhibition percentage lower than standard inhibitor acarbose on α-glucosidase [1],inhibition at 20 µM [1] [%],IC50 [2] [mM],less potential on α-amylase than 4a on α-glucosidase (IC50 ratio) ([2]; IC50 on α-amylase vs IC50 of 4a on α-glucosidase) [times],less potential on α-amylase than 4b on α-amylase (IC50 ratio) ([2]; IC50 on α-amylase vs IC50 of 4b on α-amylase),less potential on α-amylase than 4b on α-glucosidase (IC50 ratio) ([2]; IC50 on α-amylase vs IC50 of 4b on α-glucosidase),"IC50 [2, 5] [mM]",inhibition percentage lower than standard inhibitor acarbose on α-amylase [2] [times],inhibition at 20 µM [2] [%],α-Glucosidase inhibition type [3],Ki [3] [µM],α-Amylase inhibition type [4],"Ki [4, 6] [µM]","Ki [4, 7] [µM]",Inhibitory activity at 0.5 mM (%) (DPPH assay),IC50 (DPPH assay) [µM]
"CC(=O)C1CCCN1Cc1ccccc1 (stereo not shown) [4a, N-(benzyl)-2-acetylpyrrolidine]",520 ± 20,approximately 2.21 times,40.3 ± 0.8,3.21 ± 0.65,~6.2,approximately 1.20 times,approximately 2.0 times,2.72 ± 0.09,~2.13,28.9 ± 0.57,Mixed type,290,Mixed type,230,2350,41.62 ± 0.64^a %,1010 ± 10
"CC(=O)C1CCCN1S(=O)(=O)c1ccc(C)cc1 (stereo not shown) [4b, N-(tosyl)-2-acetylpyrrolidine]",1640 ± 80,approximately 2.21 times,32.31 ± 0.29,2.72 ± 0.09,,,,3.21 ± 0.65,~2.13,30.1 ± 0.78,Mixed type,230,Mixed type,270,710,34.28 ± 0.73^b %,1820 ± 48
"C[C@H]1O[C@H](O[C@H]2[C@H](O)[C@@H](O)[C@@H](O[C@H]3[C@H](O)[C@@H](O)C(O)O[C@@H]3CO)O[C@@H]2CO)[C@H](O)[C@@H](O)[C@@H]1N[C@H]1C=C(CO)[C@@H](O)[C@H](O)[C@H]1O (stereo partly shown) [Acarbose, acarbose, reference compound]",,,,,,,,,,61.7 ± 1.14,Mixed type,,Mixed type,,,,
